Reference: a melting point compilation (Tetko et al.; mined from patent text by program, amines drawn as free bases though some values may be those of a salt)

Row | melting point | Structure (SMILES)
1 | 100 to 102 °C | COc1ccc(CNc2c(C)c(C)c3oc(C)c(-c4ccc(F)cc4)c3c2C)cc1
2 | 210 to 213 °C | Cc1ccc(C(=O)/C=C/c2c(-c3ccc(F)cc3)nc3sccn23)cc1C
3 | 67 to 68 °C | CC(=O)CCc1ccc(C(=O)c2ccc(F)cc2)cc1
4 | 181 to 182 °C | CCN(CC)CCNc1ccc(CO)c2sc3ccc(O)cc3c(=O)c12
5 | 194 °C | CCOc1ccc(C2(C(=O)O)CC(F)(F)C2(F)F)cc1 (centres undefined)
6 | 165 to 167 °C | O=C(O)c1cc(=O)c(Sc2ccc(Cl)cc2)co1
7 | 131 to 133 °C | CCOC(=O)CC(=O)CNC(=O)CCc1cc(-c2ccc(C(F)(F)F)cc2)oc1C
8 | 243 to 245 °C | O=c1c2c(Cc3ccc(F)cc3)n[nH]c2c2cccnc2n1-c1cccc(C(F)(F)F)c1
9 | 229 to 230 °C | CCn1nc(-c2ccccc2)c(C(C)=O)c(Nc2cnccn2)c1=O
10 | 97 to 99 °C | COC(=O)/C=C/C=C(/c1ccc(OC)cc1)c1cccs1
11 | 285 to 286 °C | Cc1cc(C)cc(-c2nc(NC(=O)c3ccccc3)sc2-c2ccncc2)c1
12 | 108 to 110 °C | CC(C)(O)COc1c(-c2ccc(S(C)(=O)=O)cc2)cnn(-c2ccc(Cl)c(Cl)c2)c1=O
13 | 258 to 261 °C | CCCCOc1ccc(/C=C/c2nc3c([nH]2)c(=O)n(CC)c(=O)n3CC)cc1
14 | 200 °C | CCNC(=O)c1c(Br)ccc(OC)c1[Si](C)(C)C
15 | 164 to 165 °C | CCCCCCOc1cc2c(cc1/C(C)=C/C=C/C(C)=C/C(=O)O)C(C)(C)CCCS2(=O)=O
16 | 78 to 79 °C | N#Cc1cccnc1N1CCN(CC(=O)Nc2ccccc2F)CC1
17 | 212 to 213 °C | O=C1CCC(c2ccc(Cl)cc2)CN1CNC(=S)NCN1CC(c2ccc(Cl)cc2)CCC1=O (centres undefined)
18 | 101 to 102 °C | COC(=O)c1sc2ccccc2c1CBr
19 | 86.8 to 87.4 °C | COc1ccc(-c2cc(=O)n(CC(C)C)nc2-c2ccc(OC)c(F)c2)cc1
20 | 204 °C | CCn1nc(C)c2c1C(=O)NCC(c1cccc(O)c1)=N2
21 | > 260 °C | Cc1c(CO)c(Cl)nc2ccccc12
22 | 145 to 148 °C | CCC(=O)N(CC)c1cccc(-c2ccc3nnc(C)n3n2)c1
23 | 58 to 60 °C | O=C(O)CCCCCNC(=O)C(CS)Cc1ccccc1 (centres undefined)
24 | 48 to 49 °C | COc1ccc(COCCC(C)=O)cc1
25 | 118 to 119 °C | Cc1nc(CC#N)c2c(OCc3ccccc3)cccn12

Row | melting point | Structure (SMILES)
26 | 139 to 141 °C | CC1NC(=O)COC1=O (centres undefined)
27 | 67 to 68 °C | Cc1cccc([N+](=O)[O-])c1CO
28 | 133 to 134 °C | O=C1c2ccccc2C(O)N1CCCl (centres undefined)
29 | 218 to 220 °C | O=C1C(=O)c2ccccc2C2=C1SCC1(CCN(C(=O)c3cccnc3)CC1)O2
30 | 155 to 159 °C | COC(=O)c1c[nH]c(C(=O)c2ccc(C)cc2)c1
31 | 246 °C | Cn1cncc1C(O)(c1ccoc1)c1ccc2nc(Cl)cc(-c3cccc(Cl)c3)c2c1 (centres undefined)
32 | 153 to 155 °C | Cc1c(C#N)sc2nc(CCc3ccccc3)nc(NC3CCC3)c12
33 | 136 to 138 °C | O=C(Cc1ccc(O)cc1)OCCC(c1ccccc1)(c1ccccc1)c1ccccc1
34 | 193 °C | Nc1ccc2ccc(-c3ccccc3Cl)nc2n1
35 | 121 to 122 °C | CC(=O)c1cc(NS(C)(=O)=O)ccc1O
36 | 100 to 102 °C | O=C1c2ccccc2C(=O)N1CCCCOc1ccc(-c2ccncn2)cc1
37 | 273 to 274 °C | CCCOc1ccccc1-c1nc2nc(NC(C)=O)ncc2c(=O)[nH]1
38 | 180 to 181 °C | CC(C)=NOCc1nc2c(N)nc(C)c(C)c2n1CCCCNC(=O)C(C)C
39 | 138 to 140 °C | COc1ccc(/C=C(\C#N)c2ccc(O)cc2)cc1OC1CCCC1
40 | 196 to 198 °C | Cc1ccc2c(Cl)cc(S(=O)(=O)F)c(O)c2n1
41 | 126 °C | O=C(Nc1ccc(OCCCBr)cc1)c1cccc2c(=O)c3ccccc3[nH]c12
42 | 175 °C | O=C(Nc1ccc2ccc(-c3ccccc3)nc2n1)c1cccc(Br)c1
43 | 126 °C | Cc1ccccc1OCCN1CCC(CNc2nc3ccccc3s2)CC1
44 | 244 °C | Cc1ccc(C)n1-c1cc2[nH]c(=O)c(=O)n(CC(=O)NCc3ccccc3)c2cc1Cl
45 | 241 °C | CN1CCN(c2ccc(-n3c(-c4cc(-c5cnc6[nH]ccc6c5)ccn4)cn(C)c3=O)cc2C(F)(F)F)CC1
46 | 152 to 153 °C | CN(c1cc(OC(F)(F)F)cc2cc(C3=NCC(CCO)S3)[nH]c12)S(=O)(=O)c1cccs1 (centres undefined)
47 | 234 to 236 °C | COc1ccccc1S(=O)(=O)NC(=O)c1ccc(C(=O)O)nc1
48 | 109 °C | CSCCC1OC2(CCCCC2)NC1=O (centres undefined)
49 | > 225 °C | Nc1ccc2ncc(C(=O)NCc3ccc(Cl)cc3)c(O)c2c1
50 | 169 to 170 °C | CC(C)Oc1c(C2=CC(C)(C)Oc3ccc(C#N)cc32)c(=O)c1=O

Row | melting point | Structure (SMILES)
51 | 154 °C | CNC(=O)c1cc(-c2ccc(OC)cc2)nn(C(C)C)c1=O
52 | 73 to 74 °C | CCCc1c(OCCOc2ccc(N)cc2)ccc(C(C)=O)c1O
53 | > 300 °C | CC1(C)C=Nc2cc3[nH]c(-c4ccncc4)cc3cc21
54 | 202 to 205 °C | CC(=O)OCC(=O)C1(O)C(C)CC2C3CCC4=CC(=O)C=CC4(C)C3=CCC21C (centres undefined)
55 | 128 to 130 °C | O=C(c1cc2ccc(Br)cc2o1)C12CC3CC(CC(C3)C1)C2
56 | 94 to 95 °C | O=C1c2ccccc2C(=O)N1CCCCN1CCN(c2csc3cc(F)ccc23)CC1
57 | 190 to 191 °C | O=c1oc2c(O)cccc2c(OCCN2CCOCC2)c1-c1ccccc1
58 | 266 °C | COc1ccccc1[C@@]1(O)[C@H](O)CC(c2ccccc2)(c2ccccc2)[C@@H]2CN(C(=O)Cc3c[nH]c4ccccc34)C[C@@H]21 (racemic)
59 | 135 to 137 °C | CCOC(=O)c1ncn2c1COc1ccccc1-2
60 | 230 to 232 °C | Clc1ccc(-c2c(Cc3nnn[nH]3)cnn2-c2ccccc2)cc1
61 | 112 °C | O=C(Nc1cn[nH]c1-c1ccc(F)cc1)c1c(F)cccc1F
62 | 99 to 102 °C | Clc1cc2c(cc1Cn1ccnc1)OCO2
63 | 64 to 68.5 °C | COC(=O)C(Sc1ccccc1)c1ccc(Oc2ccc(Cl)cc2)cc1 (centres undefined)
64 | 101 to 102 °C | COc1ccccc1NC(=O)Nc1nc(N2CCOCC2)nc(N(CCC(=O)O)Cc2cccc(C)c2)n1
65 | 237 to 238 °C | O=C(O)COc1cc2c(=O)c3ccccc3oc2cc1Cl
66 | 199 to 203 °C | Fc1ccc2c(NCc3ccccc3)nc(-c3cccnc3)nc2c1
67 | 213 to 216 °C | Nc1ccc(C(=O)NC2CCN(c3ccccc3)C2)cc1 (centres undefined)
68 | 131 to 133 °C | Cn1cc(C(=O)Nc2ccccc2-c2ccc(Cl)c(Cl)c2)c(C(F)(F)F)n1
69 | 167 to 168 °C | CCCNC(=S)NS(=O)(=O)c1c(NC(=O)OCC)sc(C)c1C#N
70 | 140 to 160 °C | N#Cc1c(N2CCN(C(=O)c3ccc4c(c3)OCO4)CC2)c2ccccc2n(Cc2ccc(F)cc2)c1=O
71 | 71.5 to 73 °C | Brc1ccc(C=Cc2csc3ccccc23)s1
72 | 42 to 43.5 °C | CN(C)C=C(C=O)c1cccc(F)c1
73 | 64 to 66 °C | COC(=O)CSC(CCCc1ccccc1)c1ccc(OCc2ccc3ccc(F)cc3n2)cc1 (centres undefined)
74 | 130 °C | OC1(COc2cccc3ccccc23)CCN(Cc2ccccc2)C1 (centres undefined)
75 | 157 °C | CC(=O)Nc1cccc(Br)n1

Row | melting point | Structure (SMILES)
76 | 65 to 66 °C | COc1cccc(Cc2cnc(-c3ccccc3)c(-c3ccccc3)n2)c1
77 | 96 to 98 °C | COC(=O)C(C)(C)OCc1cc2cc(C(F)(F)F)ccc2n1S(=O)(=O)c1ccc2c(c1)OCCN2C
78 | 98 °C | COc1ccc(S(=O)(=O)C(C)(Cc2ccc(OCCN3CCCCC3)cc2)C(N)=O)cc1 (centres undefined)
79 | 257 °C | COc1ccccc1-n1c(Cn2cnc3c(N)ncnc32)nc2cccc(Cl)c2c1=O
80 | 173 to 175 °C | CNc1cc(NS(=O)(=O)c2ccc(N)cc2)cc(C)n1
81 | 145 to 147 °C | CCOc1nc(C)nc(N2CCc3ccccc3CC2)c1[N+](=O)[O-]
82 | 132 to 136 °C | CC1=CC(NC(=O)OC(C)(C)C)C(C(=O)O)CC1 (centres undefined)
83 | 183 to 184 °C | Nc1ccc(CP2(=O)OCCO2)cc1
84 | 179 to 180 °C | CCc1nn2ccc3c(c2c1CC#N)CCO3
85 | 58 to 60 °C | CCCCCOc1ccc(OCC(O)CC#CCCCC(=O)O)cc1 (centres undefined)
86 | 87 to 89 °C | CC1C(Cl)(Cl)C1(C)C(=O)C(N)=O (centres undefined)
87 | 154 to 156 °C | COc1c(Cl)nc(C(=O)O)c(Cl)c1N
88 | 140 to 142 °C | CC(=O)N1c2ccc(Cl)cc2CC1C#N (centres undefined)
89 | 107 to 109 °C | CC(O)c1ccc(OCCCCl)c(O)c1 (centres undefined)
90 | 220 to 225 °C | CCc1ccc2c(c1)C=Cc1cc(C)ccc1C2c1cn(-c2ccnc(NCC(=O)Nc3nnn[nH]3)n2)c(=O)[nH]c1=O (centres undefined)
91 | 202 to 203 °C | CC(=O)OC1CC2(C)C(C(C)=O)=CCC2C2CCC3=CC(=O)C=CC3(C)C12F (centres undefined)
92 | 124 to 126 °C | COc1ccc(C2(c3cccc(C)n3)OCCCO2)cc1OC
93 | 49 to 53 °C | COC(=O)C(Br)c1ccc(OCCCOc2ccc(Cl)cc2)cc1 (centres undefined)
94 | 265 to 268 °C | COC(=O)c1ccc2c(c1)Nc1nccnc1S2
95 | 35 °C | Cn1nc(-c2ccc(Cl)cc2Cl)cc1OC(F)F
96 | 106 to 109 °C | CCCOC(Cc1ccc(OCCc2nc(-c3ccccc3)oc2C)c2ccsc12)C(=O)O (centres undefined)
97 | 83 °C | C=CCOc1cc(C)c2ccc(=O)oc2c1
98 | 199 to 200 °C | Cc1cc(N)ccc1N1CCC(N2CCOCC2)CC1
99 | 173 to 174 °C | CC(=O)Nc1c(Cl)cc(Br)c(C)c1Cl
100 | 179 to 180 °C | CN(Cc1ccccc1)C(=O)Cn1nc(-c2ccccc2O)nc1-c1ccccc1O

Row | Structure (SMILES) | melting point
101 | CN(C)Cc1nnc2n1-c1ccccc1C(c1ccccc1)=NC2 | 181 to 182 °C
102 | COc1ccc2c(c1)c(C=O)cn2CCCCl | 75 to 76 °C
103 | Cc1cccc2c(Nc3ccc(OCCCCN(CCCl)CCCl)cc3)c3cccc(C(=O)NCCN(C)C)c3nc12 | 166 to 167 °C
104 | COC(=O)C1C(c2ccc(Br)cc2)CC2CCC1N2C (centres undefined) | 114 to 116 °C
